Laboratory results taken from PMC8300937, “New azolyl-derivatives as multitargeting agents against breast cancer and fungal infections: synthesis, biological evaluation and docking study” (Journal of Enzyme Inhibition and Medicinal Chemistry, 2021).
Converted amounts (≈) assume the structure as drawn. “And” between values parts separate entries of the source, which are not always exact repeats. Identical values can stand only once. Like-named read-outs stand apart in the source and are kept apart here.

Experiments:
aromatase (CYP19A) = biological target: T1, aromatase (CYP19A) (Homo sapiens, UniProt P11511); assay: Aromatase inhibition, fluorimetric assay kit (Aromatase-CYP19A Inhibitor Screening kit, BioVision); assay type: biochemical; conditions: read-out: Aromatase % inhibition
T1 construct: purchased BioVision
T1 sequence (P11511 1-503): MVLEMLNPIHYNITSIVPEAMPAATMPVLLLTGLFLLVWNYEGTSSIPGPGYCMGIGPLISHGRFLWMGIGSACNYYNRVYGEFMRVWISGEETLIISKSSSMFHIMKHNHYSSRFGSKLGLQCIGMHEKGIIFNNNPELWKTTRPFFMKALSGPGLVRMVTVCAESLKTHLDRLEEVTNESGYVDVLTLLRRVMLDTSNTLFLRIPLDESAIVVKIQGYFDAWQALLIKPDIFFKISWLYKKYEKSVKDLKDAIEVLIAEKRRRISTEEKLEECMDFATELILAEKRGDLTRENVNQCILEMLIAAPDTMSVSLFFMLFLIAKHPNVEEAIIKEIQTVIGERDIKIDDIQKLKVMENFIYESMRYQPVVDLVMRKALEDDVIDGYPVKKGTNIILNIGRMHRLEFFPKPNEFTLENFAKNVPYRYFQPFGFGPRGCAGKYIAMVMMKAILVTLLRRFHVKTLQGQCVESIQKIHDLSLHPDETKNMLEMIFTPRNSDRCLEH
Procedure: The aromatase inhibitory activity of the novel compounds was determined using a commercial fluorimetric kit (Aromatase CYP19A Inhibitor Screening kit, BioVision, Milpitas, CA, USA). The assay utilises a fluorogenic aromatase substrate, that is converted into a highly fluorescent metabolite detected in the visible range (Ex/Em = 488/527 nm), ensuring a high signal-to-background ratio with little interference by autofluorescence.

Recombinant human iNOS = biological target: T2, Recombinant human iNOS (Homo sapiens, UniProt P35228); assay: iNOS inhibition, L-citrulline assay with fluorimetric (HPLC) detection; assay type: biochemical; conditions: for inhibition at 1 µM: read-out: iNOS % inhibition; for iNOS % inhibition: compounds at 1 µM, normalised to 1400 W (positive control, 100% inhibition at 1 μM), triplicate, mean ± SD
T2 construct: purchased Enzo Life Sciences, Inc
Procedure: The injection volume was 5 μL.
Recombinant human iNOS was purchased from Enzo Life Sciences, Inc. (New York, USA).

[1] = test system: MCF-7 breast cancer cell line; assay: Cell metabolic activity (MTT assay); assay type: cell-based; conditions: Homo sapiens, read-out: IC50 cell metabolic activity (MTT)
Procedure: (§1) Human breast cancer MCF-7 (HTB-22™) cells were purchased from ATCC® and maintained in Dulbecco’s Modified Eagle Medium (DMEM) high glucose supplemented with 10% of foetal bovine serum (FBS) and 1% of penicillin/streptomycin (all from Gibco-Thermofisher Scientific, MD, USA) at 37 °C and 5% CO2.
Cell metabolic activity of MCF-7 human breast cancer cells was assessed by MTT (3–(4,5-dimethylthiazol-2-yl)-2,5-diphenyltetrazolium bromide) test (Sigma Aldrich, Milan, Italy). Cells were seeded (0.1 × 10^4/well) in a 96-well tissue culture-treated plate (Falcon®, Corning Incorporated, NY, USA) and let them adhere for 24 h. Next, the cell monolayer was incubated in the presence of loading concentrations of compounds 2, 5 and 6 (0–400 µM) diluted in DMSO (final concentration 0.2%) for 24, 48 and 72 h. After the exposure time, cells were incubated with 100 μL/well of MTT (5 mg/mL) 1:10 with fresh growth medium (final concentration 0.5 mg/mL) for 4 h at 37 °C and 5% CO2. Finally, the MTT solution was removed and replaced with 100 µL/well of DMSO. Cells were incubated for an additional 20 min at 37 °C and 5% CO2 and afterward gently swirled for 10 min at room temperature. The optical density was measured at 540 nm by means of a spectrophotometer (Multiskan GO, Thermo Scientific, Monza, Italy). Results were expressed as the percentage of cells in the presence of vehicle (DMSO) set as 100% and each experiment was performed in triplicate (n = 3). Concentration-response curves and IC50 were fitted and calculated with the GraphPad Prism 5.0 (GraphPad Software, San Diego, CA, USA)[27].

C. albicans ATCC 90028 = assay: Antifungal broth microdilution (EUCAST), standard strain; assay type: cell-based; conditions: Candida albicans
Procedure: The antifungal activity of the most representative compounds was evaluated versus one ATCC 90028 strain and 15 clinical isolates belonging to the most clinically relevant Candida spp. (C. albicans, C. tropicalis, and C. glabrata). All strains were stored at −80 °C in Sabouraud Broth (Oxoid LTD, Basingstoke, Hampshire, England) with 20% of glycerine until their use. The strains were grown on Sabouraud CAF agar (Thermo Fisher Scientific Waltham, MA, USA), and incubated for 24–48 h at 37 °C. […] The in vitro antifungal activity was determined by broth microdilution method with RPMI 1640 (Sigma-Aldrich. ST Louis, MO, USA) as recommended by EUCAST, and the E. Def 7.3, method document (http://www.eucast.org). […] Each plate included the following controls: (i) inoculum suspension (growth control), (ii) drug-free medium, (iii) medium with drug, and (iv) distilled water (used for the inoculum preparation). Fluconazole was used as a reference drug according to the EUCAST guidelines. The plates were incubated for 24 h at 37 °C, and then read with a plate reader at 530 nm. […] Three independent experiments were performed in triplicate.

aromatase = conditions: Figure 1; cited from earlier work
[2] = Chemical stability in aqueous media at 37 °C (HPLC); assay type: physicochemical
Procedure: Compounds 2 and 5 contain an ester linkage, therefore their chemical stability was evaluated. Phosphate buffer (pH = 7.4), HCl solution (pH = 2.0), NaOH solution (pH = 9.0) were adopted as media. […] Solutions were kept at 37 °C and monitored for 24 h.
A 0.01 M hydrochloric acid buffer (pH 2), as a non-enzymatic simulated gastric fluid (SGF), a 0.01 M phosphate buffer (pH 7.4) as non-enzymatic simulated intestinal fluid (SIF), and a 0.1 mM sodium hydroxide solution (pH 10) were used in this study. The reactions were initiated by adding 0.1 ml of compound stock solution (1 mg/mL in DMSO) to 1.9 ml aqueous buffer solution, in screw-capped vials at 37 ± 0.5 °C. Samples (5 µL) were withdrawn at appropriate intervals, i.e. after 5 min, 1 h, 2 h, 3 h, 4 h, 6 h, 8 h, and then after 24 h incubation time and analysed by HPLC.

MCF-7 cell line = assay: Cytotoxicity test (lactate dehydrogenase release); assay type: cell-based, human; conditions: MCF-7, 24 h, DMSO control set as 1
Procedure: as §1
After 24 h, cell supernatants were collected from the MTT plate, centrifuged at 450 × g for 4 min and stored on ice. To quantify the cytotoxicity of loading concentrations of compounds 2, 5 and 6 (0–400 µM), the CytoTox 96® Non-Radioactive Cytotoxicity Assay (Promega Corporation, WI, USA) was performed. The CytoTox 96® Assay quantitatively measures lactate dehydrogenase (LDH), a stable cytosolic enzyme released upon cell lysis. The absorbance signal resulting from the conversion of a tetrazolium salt (iodonitrotetrazolium violet; INT) into a red formazan product was measured at 490 and 690 nm (background) with a spectrophotometer (Multiskan GO, Thermo Scientific, Monza, Italy). The results were normalised on MTT absorbances and expressed as fold increases on the LDH released by cultures in the presence of vehicle (DMSO) set as 1.

[3] = ATCC90028, C. albicans ATCC 90028, 24 h, ≥50% growth inhibition, read-out: MIC

| melting point | inhibition at 1 µM (aromatase (CYP19A)) | inhibition at 1 µM (Recombinant human iNOS) | MIC (C. albicans ATCC 90028; [3]) | SMILES | other results |
| --- | --- | --- | --- | --- | --- |
|  | 63 ± 3.1% | 47 ± 0.3% | > 64 µg/mL | O=[N+]([O-])c1cccc(S(=O)(=O)N2CCCC(Cn3cncn3)C2)c1 (centres unmarked) [Compound 16, 1-[(3-nitrophenyl)sulphonyl]-3-(1H-1,2,4-triazol-1-ylmethyl)piperidine] |  |
|  | 61 ± 2.1% | 0% |  | CC(=O)Nc1ccc(S(=O)(=O)N2CCCC(Cn3cncn3)C2)cc1 (centres unmarked) [Compound 20, N-(4-{[3-(1H-1,2,4-triazol-1-ylmethyl)piperidin-1-yl]sulphonyl}phenyl)acetamide] |  |
|  |  |  | 0.25 µg/mL (≈ 0.816 µM) | OC(Cn1cncn1)(Cn1cncn1)c1ccc(F)cc1F [Fluconazole, reference compound] |  |
| 105 to 106 °C | 25 ± 1.3% | 39 ± 0.2% | > 64 µg/mL | Cc1ccc(S(=O)(=O)N2CCCC(Cn3cncn3)C2)cc1[N+](=O)[O-] (centres unmarked) [Compound 17, 1-[(4-methyl-3-nitrophenyl)sulphonyl]-3-(1H-1,2,4-triazol-1-ylmethyl)piperidine] |  |
|  | 62 ± 2.8% | 18 ± 0.1% |  | COc1ccc(S(=O)(=O)N2CCCC(Cn3cncn3)C2)c(OC)c1 (centres unmarked) [Compound 15, 1-[(2,4-dimethoxyphenyl)sulphonyl]-3-(1H-1,2,4-triazol-1-ylmethyl)piperidine] |  |
| 95 to 96 °C | 48 ± 1.7% | 16 ± 0.7% |  | N#Cc1ccc(S(=O)(=O)N2CCCC(Cn3cncn3)C2)cc1 (centres unmarked) [Compound 19, 4-{[3-(1H-1,2,4-triazol-1-ylmethyl)piperidin-1-yl]sulphonyl}benzonitrile] |  |
|  | 32 ± 1.2% | 22 ± 0.5% |  | Cc1ccc(S(=O)(=O)N2CCCC(Cn3cncn3)C2)cc1 (centres unmarked) [Compound 14, 1-[(4-methylphenyl)sulphonyl]-3-(1H-1,2,4-triazol-1-ylmethyl)piperidine] |  |
| 81 to 82 °C | 55 ± 1.1% | 14 ± 0.2% | > 64 µg/mL | N#Cc1ccc(S(=O)(=O)N2CCCC(Cn3cncn3)C2)c(Cl)c1 (centres unmarked) [Compound 18, 3-chloro-4-{[3-(1H-1,2,4-triazol-1-ylmethyl)piperidin-1-yl]sulphonyl}benzonitrile] |  |

Second part, the molecule before the results:

| SMILES | melting point | inhibition at 1 µM (aromatase (CYP19A)) | inhibition at 1 µM (Recombinant human iNOS) | MIC (C. albicans ATCC 90028; [3]) | other results |
| --- | --- | --- | --- | --- | --- |
| COc1cc(C)ccc1NC(=S)OC(Cc1ccccc1)Cn1ccnc1 (centres unmarked) [Compound 8, O-[1-benzyl-2-(1H-imidazol-1-yl)ethyl] (2-methoxy-4-methylphenyl)thiocarbamate] | 120 to 121 °C | 54 ± 0.9% | 12 ± 0.1% |  |  |
| O=C(NCc1ccccc1)OC(Cc1ccccc1)Cn1ccnc1 (centres unmarked) [Compound 6, 1-benzyl-2-(1H-imidazol-1-yl)ethyl benzylcarbamate] |  | 72 ± 1.4% | 52 ± 0.7% | > 64 µg/mL | IC50 ([1]; MCF7, MCF-7, 24 h exposure): > 400 µM |
| COc1ccc(S(=O)(=O)N2CCCC(Cn3ccnc3)C2)cc1Br (centres unmarked) [Compound 3o] |  |  |  |  | IC50 (aromatase): 0.006 µM |
| O=S(=O)(c1ccccc1)N1CCCC(Cn2cncn2)C1 (centres unmarked) [Compound 13, 1-(phenylsulfonyl)-3-(1H-1,2,4-triazol-1-ylmethyl)piperidine] | 72 to 73 °C | 29 ± 1.5% | 27 ± 0.4% |  |  |
| O=C(OC(Cc1ccccc1)Cn1ccnc1)c1cccc(C(=O)c2ccccc2)c1 (centres unmarked) [Compound 4, 1-benzyl-2-(1H-imidazol-1-yl)ethyl 3-benzoylbenzoate] | 86 to 87 °C | 36 ± 1.2% | 47 ± 1.3% | > 64 µg/mL |  |
| OC(Cc1ccccc1)Cn1ccnc1 (centres unmarked) [Compound 1, 1-(1H-imidazol-1-yl)-3-phenylpropan-2-ol] |  |  |  |  | iNOS % inhibition (Recombinant human iNOS): complete enzyme inhibition |
| COc1ccc(NC(=S)OC(Cc2ccccc2)Cn2ccnc2)c(OC)c1 (centres unmarked) [Compound 7, O-[1-benzyl-2-(1H-imidazol-1-yl)ethyl] (2,4-dimethoxyphenyl)thiocarbamate] |  | 15 ± 0.3% | 7 ± 0.08% | > 64 µg/mL |  |
| N#Cc1ccc(C(c2ccc(C#N)cc2)n2cncn2)cc1 [letrozole, reference compound] |  | 100% |  |  |  |
| O=C(OC(Cc1ccccc1)Cn1ccnc1)c1ccc2ccccc2c1 (centres unmarked) [Compound 3, 1-benzyl-2-(1H-imidazol-1-yl)ethyl 2-naphthoate] | 71 to 72 °C | 13 ± 0.5% | 0% | 64 µg/mL (≈ 180 µM) |  |
| O=C(OC(Cc1ccccc1)Cn1ccnc1)c1cc([N+](=O)[O-])cc([N+](=O)[O-])c1 (centres unmarked) [Compound 5, 1-benzyl-2-(1H-imidazol-1-yl)ethyl 3,5-dinitrobenzoate] | 144 to 145 °C | 82 ± 3.8% | 100 ± 1.7% |  | IC50 ([1]; MCF7, 24 h): 120 µM; IC50 ([1]; MCF7, 48 h): 82.5 µM; IC50 ([1]; MCF7, 72 h): 68.8 µM; MIC (C. albicans ATCC 90028; ATCC90028, 24 h): > 64 µg/mL; Chemical stability in acidic medium ([2]; HCl solution pH = 2.0, 37 °C, monitored for 24 h): stable; Chemical stability in neutral medium ([2]; Phosphate buffer pH = 7.4, 37 °C, monitored for 24 h): stable; half-life at 0.05 mg/mL ([2]; buffer, NaOH solution pH = 9.0, 37 °C, read-out: half-life of hydrolysis in basic medium): 39 min; iNOS % inhibition (Recombinant human iNOS): complete enzyme inhibition; LDH released, fold increase vs control (MCF-7 cell line; 10 µM (lowest concentration tested)): 1.91 folds; LDH released, fold increase vs control (MCF-7 cell line; concentrations after the IC50 (120 µM)): 6.25 folds and 7.50 folds |
| CC(=N)NCc1cccc(CN)c1 [1400 W, reference compound] |  |  |  |  | iNOS % inhibition (Recombinant human iNOS): 100% |
